Assay results as given in article PMC9313812, “The Pseudo‐Natural Product Rhonin Targets RHOGDI” (Angewandte Chemie (International Ed. in English), 2022).

Target: T1, RHOGDI1-RAC1 interaction (Homo sapiens, UniProt P52565)
T1 construct: GST; made in house; host or cells: RHOGDI1: E. coli; GerGer-RAC1: insect cells (TNAO38)
T1 sequence (P52565 1-204): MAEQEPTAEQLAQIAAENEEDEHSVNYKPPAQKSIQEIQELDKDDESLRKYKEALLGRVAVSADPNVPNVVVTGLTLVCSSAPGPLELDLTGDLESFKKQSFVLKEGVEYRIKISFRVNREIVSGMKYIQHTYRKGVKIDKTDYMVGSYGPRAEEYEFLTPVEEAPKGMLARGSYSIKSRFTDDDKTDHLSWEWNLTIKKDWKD
Test: Fluorescence polarization: titration of TAMRA-GDP-bound RAC1 with RHOGDI1 in presence of compound
Type: binding
Conditions: Cheng-Prusoff equation using data from Figure S6f
Method: cilia were stained with an antibody against acetylated tubulin. SMO was marked with an anti-SMO antibody and DAPI was used to stain the nuclei. For quantification of cilia, at least 100 cilia per condition and biological replicate were analyzed for the intensity of anti-acetylated tubulin antibody staining. The results of one representative biological replicate are shown and each data point represents the intensity value of one single cilium. Statistical significance was evaluated using an unpaired t-test with a confidence interval of 95 % (p ≤ n.s.). […]
Label-free quantification (LFQ) intensities were logarithmized (log2) and proteins, which were not three times quantified in at least one of the groups, were filtered off. […]
Fluorescence polarization
The binding of probe 10 to RHOGDI1-3 was confirmed by fluorescence polarization experiments. […] The change in fluorescence polarization was monitored at an excitation / emission wavelengths of 535 nm and 593 nm, respectively. […]
To determine the effect of 7a on the binding of RHOGDI1 to non-prenylated RAC1-GDP, fluorescence polarization measurements were performed by titrating 1 µM TAMRA-GDP-bound RAC1 with increasing concentrations of RHOGDI1 in the presence and absence of 50 µM 7a in buffer containing 30 mM Tris-HCl, pH 7.5, 150 mM NaCl, 5 mM MgCl2, 1% DMSO. […]

COC(=O)C1(C(CC(=O)c2cccnc2)c2ccccc2)N=C(c2ccc(Br)cc2)C2C(=O)N(C)C(=O)C21 (stereo not shown) [7l]
Ki: ~2.2 µM
